Assay results reported in patent publication US20050227220A1, “Compositions and Methods for Evaluating and Designing Nuclear Receptor Ligands that Modulate Co-Regulator Affinity” (priority 2002, published 2005).

Assays:
[1] = biological target: T1, full length human PPARα (Homo sapiens, UniProt Q07869); experiment: Mammalian two-hybrid assay (CV-1 cells); type: cell-based; settings: VP16-PPARα, GAL4-NCoR (2239-2300), result in words
T1 construct: expressed in transfected cells; host or cells: CV-1 cells, vector pVP16 (Clonetech)
T1 sequence (Q07869 1-468): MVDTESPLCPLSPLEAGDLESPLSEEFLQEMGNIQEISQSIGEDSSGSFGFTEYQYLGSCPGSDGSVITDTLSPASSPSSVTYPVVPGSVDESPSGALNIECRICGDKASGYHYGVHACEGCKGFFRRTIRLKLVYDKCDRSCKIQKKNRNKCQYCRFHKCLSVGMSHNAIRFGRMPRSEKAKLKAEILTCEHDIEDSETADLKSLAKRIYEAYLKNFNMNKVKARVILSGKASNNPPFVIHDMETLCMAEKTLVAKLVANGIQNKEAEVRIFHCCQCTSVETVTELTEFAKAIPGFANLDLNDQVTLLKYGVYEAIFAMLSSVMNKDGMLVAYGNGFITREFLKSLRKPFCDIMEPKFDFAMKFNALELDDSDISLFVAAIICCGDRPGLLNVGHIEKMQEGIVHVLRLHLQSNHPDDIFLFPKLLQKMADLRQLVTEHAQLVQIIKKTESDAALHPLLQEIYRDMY
From the text: Mammalian two-hybrid assays were used to examine the ability of the tyrosine-based class of PPAR ligands to promote association or dissociation of the co-activator CBP and the corepressor NCoR in the context of a cellular environment. The assays for the three PPAR subtypes used full length human PPARα, PPARγ2 or PPARδ fused to the activation domain of VP16 and previously identified interaction domains of CBP and NCoR fused to the DNA binding domain of GAL4.
Expression plasmids for the VP16-human PPAR constructs were prepared by inserting amplified cDNAs encoding full length PPARα, PPARγ2 and PPARδ fused to amino acids 410-490 of the VP16 viral activation domain, into the expression vector pVP16 (Clonetech). […] The reporter plasmid was (UAS)5-tk-SPAP, and the internal control plasmid for all transfections was β-galactosidase expression vector (pCH110, Amersham).
CV-1 cells were maintained in culture in DME high glucose medium supplemented with 10% FBS and 2 mM glutamine in a humidified incubator (5% CO2 in air) at 37° C. Cells were harvested 72 hours prior to experimental use and placed in phenol red free D-MEM/F-12 medium with 15 mM HEPES supplemented with 10% charcoal/dextran-treated FBS (HyClone, Logan, Utah). The cells were harvested and seeded at 2.0×10^4 cell per well in a 96-well plate the day prior to transfection. Cells were transfected for 16 hr using Lipofectamine (Life Technologies, Inc., Rockville, Md.) essentially according to the manufacturer's instructions. The total amount of DNA transfected into each well was 80 ng. Transfection mixtures contained 8 ng VP16-PPAR plasmid, 8 ng SPAP reporter, 25 ng of pCH110(β-galactosidase) control plasmid, 35 ng of pBluescript II KS+ (Clonetech) and 4 ng of either coactivator or corepressor plasmid. Transfection quantities for full length PPAR and cofactor plasmids were optimized to generate a signal that was half of the maximal activation. These conditions would allow for dissociation or association to be experimentally determined for each ligand evaluated. Stock solutions of drugs were prepated in DMSO and dilutions were made in phenol red-free D-MEM/F-12 with 15 mM HEPES supplemented with 10% charcoal stripped, delipidated, heat inactivated (62° C. for 35 min) bovine calf serum (Sigma, St. Louis, Mo.) such that the final concentration of DMSO was 0.1%. Transfection mixtures were aspirated and 100 μl, of medium containing drug was added to each well.

[2] = biological target: T2, PPARα LBD (Homo sapiens, UniProt Q07869); experiment: FRET assay: ligand effect on CBP fragment / NCoR ID-C binding to PPAR LBD; type: biochemical; settings: 10 nM PPAR LBD; for effect on apparent affinity of PPARα for the co-activator fragment from CBP: CBP (57-454)
T2 construct: made in house; host or cells: bacterial BL21-DE3, vector pRSETA
T2 sequence (Q07869 192-468): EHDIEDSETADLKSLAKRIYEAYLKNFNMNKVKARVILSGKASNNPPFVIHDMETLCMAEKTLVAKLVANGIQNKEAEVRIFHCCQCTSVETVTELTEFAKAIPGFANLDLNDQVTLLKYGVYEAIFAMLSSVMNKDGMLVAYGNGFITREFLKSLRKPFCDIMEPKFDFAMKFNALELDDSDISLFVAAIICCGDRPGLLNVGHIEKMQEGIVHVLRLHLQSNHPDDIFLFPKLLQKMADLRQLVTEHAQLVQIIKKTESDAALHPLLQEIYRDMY
From the text: (§1) The experimentally determined α value is the ratio of cofactor affinities in the presence and absence of a saturating concentration of ligand. This analysis permits a direct comparison of the effects of compounds, independent of cofactor concentration and differences in coregulator affinity for the individual receptors. […] 98(9): p.
(§2) The effects of the coregulator environment on the apparent affinities and selectivities of various ligands were than examined. Experimentally determined pKs and the α values derived from the FRET assay were used to calculate the apparent affinity of the ligand for the receptor/cofactor complex (i.e. K/α).
(§3) FIG. 5 illustrates the effect of ligands on coactivator and corepressor binding to PPAR subtypes determined by FRET.

[3] = biological target: T3, PPARδ LBD (Homo sapiens, UniProt Q03181); experiment: as above; type: biochemical; settings: 10 nM PPAR LBD, CBP (57-454)
T3 construct: made in house; host or cells: bacterial BL21-DE3, vector pRSETA
T3 sequence (Q03181 139-441): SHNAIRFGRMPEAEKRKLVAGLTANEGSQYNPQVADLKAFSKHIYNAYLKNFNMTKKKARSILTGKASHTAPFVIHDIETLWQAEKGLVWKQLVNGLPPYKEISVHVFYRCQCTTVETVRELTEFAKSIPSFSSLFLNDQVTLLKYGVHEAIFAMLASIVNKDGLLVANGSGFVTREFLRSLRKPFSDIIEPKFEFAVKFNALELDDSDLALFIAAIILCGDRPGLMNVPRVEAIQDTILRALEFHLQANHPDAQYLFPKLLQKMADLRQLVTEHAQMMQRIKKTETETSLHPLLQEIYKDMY
From the text: as §1, §2, §3

[4] = biological target: T4, PPARδ LBD / RXRα LBD (Homo sapiens, UniProt Q03181); experiment: FRET assay: ligand effect on RXRα LBD binding to PPAR LBD; settings: 10 nM PPAR LBD, 4 concentrations of RXR
T4 sequence (Q03181 139-441): T3 sequence (Q03181 139-441)
T4 sequence (P19793 225-462 partner limits assumed): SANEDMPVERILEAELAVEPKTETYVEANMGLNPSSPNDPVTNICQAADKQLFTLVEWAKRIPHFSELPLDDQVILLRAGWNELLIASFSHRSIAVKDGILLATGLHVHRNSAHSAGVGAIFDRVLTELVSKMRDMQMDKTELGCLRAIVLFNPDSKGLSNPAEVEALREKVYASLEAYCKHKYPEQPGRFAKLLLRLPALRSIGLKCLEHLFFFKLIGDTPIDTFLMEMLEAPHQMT

[5] = biological target: GAL4-CBP (1-115) (UniProt P04386 1-147; P45481 1-115); experiment: cell-based or functional assay

Molecule: CCC(=O)NC[C@H](Cc1ccc(OCCc2nc(-c3ccccc3)oc2C)cc1)N/C(C)=C\C(=O)c1ccc(C(F)(F)F)cc1 [GW6471]
- effect on PPARα interaction with NCoR [1]: modulation of co-repressor interaction was seen

Molecule: Cc1oc(-c2ccccc2)nc1CCOc1ccc(C[C@H](Nc2ccccc2C(=O)c2ccccc2)C(=O)O)cc1 [GW2570, farglitazar]
- effect on apparent affinity of PPARα for the co-activator fragment from CBP [2]: increased the apparent affinity
- effect on apparent affinity of PPARδ for the co-activator fragment from CBP [3]: increased the apparent affinity
- promotion of association of PPARδ with RXR [4]: most effective

Molecule: C/C(=C/C(=O)c1ccccc1)N[C@@H](Cc1ccc(OCCc2nc(-c3ccccc3)oc2C)cc1)C(=O)O [GW9544]
- effect on apparent affinity of PPARα for the co-activator fragment from CBP [2]: increased the apparent affinity

Molecule: Cc1cc(SCc2sc(-c3ccc(C(F)(F)F)cc3)nc2C)ccc1OCC(=O)O [GW1516]
- effect on apparent affinity of PPARα for the co-activator fragment from CBP [2]: increased the apparent affinity
- effect on affinity of PPARα for the co-repressor peptide ([2]; NCoR ID-C): decreased the affinity

B1: VP16-human PPARδ (full length) (other)
chain: LSTAPPTDVSLGDELHLDGEDVAMAHADALDDFDLDMLGDGDSPGPGFTPHDSAPYGALDMADFEFEQMFTDALGIDEYGGMEQPQEEAPEVREEEEKEEVAEAEGAPELNGGPQHALPSSSYTDLSRSSSPPSLLDQLQMGCDGASCGSLNMECRVCGDKASGFHYGVHACEGCKGFFRRTIRMKLEYEKCERSCKIQKKNRNKCQYCRFQKCLALGMSHNAIRFGRMPEAEKRKLVAGLTANEGSQYNPQVADLKAFSKHIYNAYLKNFNMTKKKARSILTGKASHTAPFVIHDIETLWQAEKGLVWKQLVNGLPPYKEISVHVFYRCQCTTVETVRELTEFAKSIPSFSSLFLNDQVTLLKYGVHEAIFAMLASIVNKDGLLVANGSGFVTREFLRSLRKPFSDIIEPKFEFAVKFNALELDDSDLALFIAAIILCGDRPGLMNVPRVEAIQDTILRALEFHLQANHPDAQYLFPKLLQKMADLRQLVTEHAQMMQRIKKTETETSLHPLLQEIYKDMY
- mammalian two-hybrid reporter, fold association with GW1929 and GW7845 [5]: ~2 fold
